These results are taken from ChEMBL document CHEMBL1125208, “Applications of neural networks in quantitative structure-activity relationships of dihydrofolate reductase inhibitors” (J Med Chem, 1991).

In this experiment the target is T1, Dihydrofolate reductase (Mus musculus) (UniProt P00375).
T1 sequence (whole entry): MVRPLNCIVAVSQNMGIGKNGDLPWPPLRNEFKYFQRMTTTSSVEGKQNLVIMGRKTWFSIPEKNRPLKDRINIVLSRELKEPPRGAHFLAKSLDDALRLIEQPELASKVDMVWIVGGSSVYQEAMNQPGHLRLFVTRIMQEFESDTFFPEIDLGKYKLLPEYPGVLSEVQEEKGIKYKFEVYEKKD
As to the kind of experiment: Inhibition of dihydrofolate reductase from L1210 leukemia tumors.

Consider `CC1(C)N=C(N)N=C(N)N1c1cccc(CCCCc2ccc(Cl)c(S(=O)(=O)F)c2)c1`, for which the Log 1/C was 8.37.
The compound `CC1(C)N=C(N)N=C(N)N1c1ccc(OCc2ccccc2C(=O)Nc2ccc(S(=O)(=O)F)cc2)c(Cl)c1` yielded a Log 1/C of 7.24.
Turning to `CN(C)C(=O)c1cccc(NC(=O)NCc2cccc(N3C(N)=NC(N)=NC3(C)C)c2)c1`, the Log 1/C amounted to 7.77.
`CC1(C)N=C(N)N=C(N)N1c1ccc(OCc2ccc(C(=O)Nc3cccc(S(=O)(=O)F)c3)cc2)c(Cl)c1` showed a Log 1/C of 7.41.
With `CC1(C)N=C(N)N=C(N)N1c1ccc(OCc2cc(S(=O)(=O)F)ccc2Cl)c(Cl)c1`, the Log 1/C amounted to 7.38.
`CC1(C)N=C(N)N=C(N)N1c1ccc(CCC(=O)Nc2ccc(S(=O)(=O)F)cc2)c(Cl)c1` came in with a Log 1/C of 7.62.
The result for `CC1(C)N=C(N)N=C(N)N1c1cccc(OCCOc2ccc(S(=O)(=O)F)cc2)c1` reads 7.82; that for `CC1(C)N=C(N)N=C(N)N1c1ccc(OCc2ccc(C(=O)Nc3ccc(S(=O)(=O)F)cc3)cc2)c(Cl)c1`, 6.92.
Turning to `CC1(C)N=C(N)N=C(N)N1c1ccc(CCc2ccc(Cl)c(S(=O)(=O)F)c2)c(Cl)c1`, the Log 1/C worked out at 8.27.
Under `CC1(C)N=C(N)N=C(N)N1c1ccc(CC(C(=O)Nc2cccc(S(=O)(=O)F)c2)c2ccccc2)cc1` (stereo not drawn) stands 6.89; under `CC1(C)N=C(N)N=C(N)N1c1ccc(OCC(=O)Nc2cccc(S(=O)(=O)F)c2)c(Cl)c1`, 7.72.
In the case of `CC1(C)N=C(N)N=C(N)N1c1cccc(CNC(=O)Nc2cccc(Cl)c2)c1`, the Log 1/C is 8.05.
The result for `COc1cccc(NC(=O)NCc2cccc(N3C(N)=NC(N)=NC3(C)C)c2)c1` reads 8.02; that for `CC1(C)N=C(N)N=C(N)N1c1cccc(CCCCc2ccc(S(=O)(=O)F)cc2)c1`, 8.1.
As to `CC1(C)N=C(N)N=C(N)N1c1cccc(CCc2ccc(S(=O)(=O)F)cc2)c1`, the Log 1/C was 8.1.
The result for `CC1(C)N=C(N)N=C(N)N1c1ccc(OCCCNC(=O)c2ccc(S(=O)(=O)F)cc2)c(Cl)c1` reads 7.34; that for `CC1(C)N=C(N)N=C(N)N1c1ccc(OCCCOc2ccc(S(=O)(=O)F)cc2)c(Cl)c1`, 7.07.
Under `CC1(C)N=C(N)N=C(N)N1c1ccc(SCC(=O)Nc2cccc(S(=O)(=O)F)c2)c(Cl)c1` stands 7.66.
Under `CC1(C)N=C(N)N=C(N)N1c1ccc(OCc2ccc(S(=O)(=O)F)cc2Cl)c(Cl)c1` stands 7.44; under `CC1(C)N=C(N)N=C(N)N1c1ccc(OCCCC(=O)Nc2cccc(S(=O)(=O)F)c2)c(Cl)c1`, 7.17; under `CC1(C)N=C(N)N=C(N)N1c1cccc(OCCCOc2ccc(S(=O)(=O)F)cc2)c1`, 7.96.
In turn, `CC1(C)N=C(N)N=C(N)N1c1ccc(SCC(=O)Nc2ccc(S(=O)(=O)F)cc2)c(Cl)c1` returned a Log 1/C of 7.42.
Under `CC1(C)N=C(N)N=C(N)N1c1ccc(CCCCCCc2ccc(S(=O)(=O)F)cc2)cc1` stands 7.12; under `CC1(C)N=C(N)N=C(N)N1c1cccc(CCCCc2cc(Cl)ccc2S(=O)(=O)F)c1`, 7.96.
Under `CCN(CC)C(=O)NCc1cccc(N2C(N)=NC(N)=NC2(C)C)c1` stands 6.11.
Under `CC1(C)N=C(N)N=C(N)N1c1ccc(CCCCc2ccccc2)c(Cl)c1` stands 7.92.
In turn, `CC1(C)N=C(N)N=C(N)N1c1ccc(CCCCc2cccc(Cl)c2S(=O)(=O)F)c(Cl)c1` came in with a Log 1/C of 8.2.
In the case of `CC1(C)N=C(N)N=C(N)N1c1cccc(OCC(=O)Nc2ccc(S(=O)(=O)F)cc2)c1`, the Log 1/C is 6.92.
As to `CC1(C)N=C(N)N=C(N)N1c1ccc(OCc2ccc(Cl)cc2S(=O)(=O)F)c(Cl)c1`, the Log 1/C was 7.52.
For `CC1(C)N=C(N)N=C(N)N1c1ccc(OCCCCNC(=O)Nc2cccc(S(=O)(=O)F)c2)c(Cl)c1`, the Log 1/C was found to be 7.7.
Regarding `CC1(C)N=C(N)N=C(N)N1c1ccc(Cl)c(OCCOc2ccc(S(=O)(=O)F)cc2)c1`, the Log 1/C is 7.27.
Compound `Cc1cc(NC(=O)NCCCOc2ccc(N3C(N)=NC(N)=NC3(C)C)cc2Cl)ccc1S(=O)(=O)F` returned a Log 1/C of 8.06.
With `CC1(C)N=C(N)N=C(N)N1c1ccc(OCc2cccc(Cl)c2S(=O)(=O)F)c(Cl)c1`, the Log 1/C came to 7.42.
The result for `CC1(C)N=C(N)N=C(N)N1c1ccc(CCCCc2ccc(S(=O)(=O)F)cc2)cc1` reads 7.7; that for `CC1(C)N=C(N)N=C(N)N1c1ccc(OCC(=O)Nc2ccc(S(=O)(=O)F)cc2)c(Cl)c1`, 7.43; that for `CC1(C)N=C(N)N=C(N)N1c1ccc(CCC(=O)Nc2ccc(S(=O)(=O)F)cc2)cc1`, 7.6.
The result for `CC1(C)N=C(N)N=C(N)N1c1ccc(OCCCC(=O)Nc2ccc(S(=O)(=O)F)cc2)c(Cl)c1` reads 7.15.
Under `Cc1cc(NC(=O)NCCOc2ccc(N3C(N)=NC(N)=NC3(C)C)cc2Cl)ccc1S(=O)(=O)F` stands 7.82.
In turn, `CC1(C)N=C(N)N=C(N)N1c1ccc(OCc2cccc(C(=O)Nc3cccc(S(=O)(=O)F)c3)c2)c(Cl)c1` showed a Log 1/C of 7.24.
Take `CC1(C)N=C(N)N=C(N)N1c1ccc(Cl)c(OCCCCCOc2ccc(S(=O)(=O)F)cc2)c1`: the Log 1/C stood at 6.72.
Turning to `CC1(C)N=C(N)N=C(N)N1c1ccc(CNC(=O)Nc2ccc(S(=O)(=O)F)cc2)c(Cl)c1`, the Log 1/C is 7.92.
The result for `CC1(C)N=C(N)N=C(N)N1c1ccc(SCC(=O)Nc2ccc(S(=O)(=O)F)cc2)cc1` reads 7.52; that for `CC1(C)N=C(N)N=C(N)N1c1ccc(Cl)c(OCCCCOc2ccc(S(=O)(=O)F)cc2)c1`, 7.17; that for `CC1(C)N=C(N)N=C(N)N1c1ccc(CCc2ccc(S(=O)(=O)F)cc2Cl)c(Cl)c1`, 8.33.
Compound `CN(C(=O)COc1ccc(N2C(N)=NC(N)=NC2(C)C)cc1Cl)c1ccc(S(=O)(=O)F)cc1` gave a Log 1/C of 7.47.
Under `CC1(C)N=C(N)N=C(N)N1c1ccc(OCCCNC(=O)Nc2cccc(S(=O)(=O)F)c2)c(Cl)c1` stands 7.28; under `CC1(C)N=C(N)N=C(N)N1c1cccc(CNC(=O)N2CCOCC2)c1`, 6.43.
The result for `CC1(C)N=C(N)N=C(N)N1c1ccc(OCc2c(Cl)cccc2S(=O)(=O)F)c(Cl)c1` reads 7.72; that for `CC1(C)N=C(N)N=C(N)N1c1ccc(CCc2cccc(Cl)c2S(=O)(=O)F)c(Cl)c1`, 8.3.
For the compound `CC1(C)N=C(N)N=C(N)N1c1ccc(CCCCc2ccccc2S(=O)(=O)F)c(Cl)c1`, the Log 1/C was found to be 7.77.
The result for `CC1(C)N=C(N)N=C(N)N1c1ccc(CCc2ccc(S(=O)(=O)F)c(Cl)c2)c(Cl)c1` reads 7.85; that for `CC1(C)N=C(N)N=C(N)N1c1cccc(CCCCc2ccc(S(=O)(=O)F)c(Cl)c2)c1`, 7.7; that for `CC1(C)N=C(N)N=C(N)N1c1ccc(Cl)c(CCCCc2ccc(S(=O)(=O)F)cc2)c1`, 6.77.
In turn, `CC1(C)N=C(N)N=C(N)N1c1ccc(OCCOCCOc2ccc(S(=O)(=O)F)cc2)c(Cl)c1` displayed a Log 1/C of 7.14.
Consider `CC1(C)N=C(N)N=C(N)N1c1ccc(OCCCNC(=O)Nc2cccc(S(=O)(=O)F)c2)cc1`, for which the Log 1/C came to 7.32.
For the compound `CC1(C)N=C(N)N=C(N)N1c1ccc(OCc2cccc(C(=O)Nc3ccc(S(=O)(=O)F)cc3)c2)c(Cl)c1`, the Log 1/C was 6.92.
The result for `CC1(C)N=C(N)N=C(N)N1c1ccc(CNC(=O)Nc2ccc(S(=O)(=O)F)cc2)cc1` reads 7.35; that for `CC1(C)N=C(N)N=C(N)N1c1ccc(OCc2ccccc2S(=O)(=O)F)c(Cl)c1`, 7.43; that for `CC1(C)N=C(N)N=C(N)N1c1ccc(OCc2ccc(S(=O)(=O)F)cc2)c(Cl)c1`, 7.58.
In turn, `CC1(C)N=C(N)N=C(N)N1c1ccc(Cl)c(CCc2ccc(S(=O)(=O)F)cc2)c1` gave a Log 1/C of 5.82.
In turn, `CC1(C)N=C(N)N=C(N)N1c1ccc(CCCCc2ccc(Cl)c(S(=O)(=O)F)c2)c(Cl)c1` gave a Log 1/C of 8.11.
`CC1(C)N=C(N)N=C(N)N1c1ccc(OCCCCOc2ccc(S(=O)(=O)F)cc2)c(Cl)c1` displayed a Log 1/C of 7.57.
`CC1(C)N=C(N)N=C(N)N1c1cccc(CCCCc2ccc(Cl)cc2Cl)c1` had a Log 1/C of 8.03.
Under `CC1(C)N=C(N)N=C(N)N1c1ccc(CCc2ccccc2)cc1` stands 7.89; under `CC1(C)N=C(N)N=C(N)N1c1ccc(OCCCCC(=O)Nc2ccc(S(=O)(=O)F)cc2)c(Cl)c1`, 7.24.
With `CC1(C)N=C(N)N=C(N)N1c1ccc(OCCCCNC(=O)c2ccc(S(=O)(=O)F)cc2)c(Cl)c1`, the Log 1/C was found to be 7.66.
The compound `CC1(C)N=C(N)N=C(N)N1c1ccc(OCCCNC(=O)Nc2ccc(S(=O)(=O)F)cc2)c(Cl)c1` came in with a Log 1/C of 7.68.
Turning to `CC1(C)N=C(N)N=C(N)N1c1ccc(OCc2cccc(S(=O)(=O)F)c2)c(Cl)c1`, the Log 1/C was found to be 7.72.
Under `CC1(C)N=C(N)N=C(N)N1c1ccc(CCC(=O)Nc2cccc(S(=O)(=O)F)c2)cc1` stands 7.74; under `CC1(C)N=C(N)N=C(N)N1c1cccc(OCCCCOc2ccc(S(=O)(=O)F)cc2)c1`, 7.49; under `CC1(C)N=C(N)N=C(N)N1c1ccc(CCCCc2ccc(S(=O)(=O)F)cc2Cl)cc1`, 7.96.
Under `CC(Oc1ccc(N2C(N)=NC(N)=NC2(C)C)cc1Cl)C(=O)Nc1ccc(S(=O)(=O)F)cc1` (stereo not drawn) stands 7.13; under `CC1(C)N=C(N)N=C(N)N1c1ccc(OCc2ccc(Cl)c(S(=O)(=O)F)c2)c(Cl)c1`, 8.
In the case of `CC1(C)N=C(N)N=C(N)N1c1ccc(OCCCCCCOc2ccc(S(=O)(=O)F)cc2)c(Cl)c1`, the Log 1/C was found to be 7.46.
As for `CC1(C)N=C(N)N=C(N)N1c1ccc(OCCCCCOc2ccc(S(=O)(=O)F)cc2)c(Cl)c1`, the Log 1/C came to 7.57.
The result for `Cc1cc(S(=O)(=O)F)ccc1COc1ccc(N2C(N)=NC(N)=NC2(C)C)cc1Cl` reads 7.38.
Under `CC1(C)N=C(N)N=C(N)N1c1ccc(CCCCc2ccc(Cl)cc2Cl)cc1` stands 7.92; under `CC1(C)N=C(N)N=C(N)N1c1ccc(OCc2cccc(S(=O)(=O)F)c2Cl)c(Cl)c1`, 7.49.
